Data on seven compounds can be found in ChEMBL document CHEMBL3132769, “Fragment growing to retain or alter the selectivity of anchored kinase hinge-binding fragments” (Medchemcomm, 2014).

The target of assay [1] is T1, Testis-specific serine/threonine-protein kinase 1 (Homo sapiens) (UniProt Q9BXA7).
T1 sequence (whole entry): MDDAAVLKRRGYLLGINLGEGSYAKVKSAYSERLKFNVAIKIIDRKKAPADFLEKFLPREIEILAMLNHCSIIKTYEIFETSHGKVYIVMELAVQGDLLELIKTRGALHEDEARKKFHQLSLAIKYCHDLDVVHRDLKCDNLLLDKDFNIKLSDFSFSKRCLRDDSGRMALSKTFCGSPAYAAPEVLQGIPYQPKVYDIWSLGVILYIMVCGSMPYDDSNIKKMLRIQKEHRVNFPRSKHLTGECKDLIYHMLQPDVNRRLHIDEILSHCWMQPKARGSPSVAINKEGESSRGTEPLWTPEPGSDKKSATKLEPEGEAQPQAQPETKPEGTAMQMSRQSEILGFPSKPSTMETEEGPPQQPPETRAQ
Briefly: Inhibition of human full length TSSK1 expressed in baculovirus assessed as substrate phosphorylation using fluorescence-labelled peptides as substrate at 0.2 uM after 90 mins by microfluidic peptide phosphorylation assay.

In assay [2] the target is Mitogen-activated protein kinase 1 (Homo sapiens) (UniProt P28482). Description: Inhibition of human full length ERK2 expressed in Escherichia coli cell assessed as substrate phosphorylation using fluorescence-labelled peptides as substrate at 0.2 uM after 90 mins by microfluidic peptide phosphorylation assay.
Assay [3] has as its system Tyrosine-protein kinase ABL1 (Homo sapiens), P00519 [H396P]. Briefly: Inhibition of human truncated ABL H396P mutant expressed in baculovirus assessed as substrate phosphorylation using fluorescence-labelled peptides as substrate at 0.2 uM after 90 mins by microfluidic peptide phosphorylation assay.
The target of assay [4] is Rho-associated protein kinase 2 (Homo sapiens) (UniProt O75116). Description: Inhibition of human ROCK2 catalytic domain expressed in baculovirus assessed as substrate phosphorylation using fluorescence-labelled peptides as substrate at 0.2 uM after 90 mins by microfluidic peptide phosphorylation assay.
For assay [5], the target named is T2, Protein kinase C epsilon type (Homo sapiens) (UniProt Q02156).
T2 sequence (whole entry): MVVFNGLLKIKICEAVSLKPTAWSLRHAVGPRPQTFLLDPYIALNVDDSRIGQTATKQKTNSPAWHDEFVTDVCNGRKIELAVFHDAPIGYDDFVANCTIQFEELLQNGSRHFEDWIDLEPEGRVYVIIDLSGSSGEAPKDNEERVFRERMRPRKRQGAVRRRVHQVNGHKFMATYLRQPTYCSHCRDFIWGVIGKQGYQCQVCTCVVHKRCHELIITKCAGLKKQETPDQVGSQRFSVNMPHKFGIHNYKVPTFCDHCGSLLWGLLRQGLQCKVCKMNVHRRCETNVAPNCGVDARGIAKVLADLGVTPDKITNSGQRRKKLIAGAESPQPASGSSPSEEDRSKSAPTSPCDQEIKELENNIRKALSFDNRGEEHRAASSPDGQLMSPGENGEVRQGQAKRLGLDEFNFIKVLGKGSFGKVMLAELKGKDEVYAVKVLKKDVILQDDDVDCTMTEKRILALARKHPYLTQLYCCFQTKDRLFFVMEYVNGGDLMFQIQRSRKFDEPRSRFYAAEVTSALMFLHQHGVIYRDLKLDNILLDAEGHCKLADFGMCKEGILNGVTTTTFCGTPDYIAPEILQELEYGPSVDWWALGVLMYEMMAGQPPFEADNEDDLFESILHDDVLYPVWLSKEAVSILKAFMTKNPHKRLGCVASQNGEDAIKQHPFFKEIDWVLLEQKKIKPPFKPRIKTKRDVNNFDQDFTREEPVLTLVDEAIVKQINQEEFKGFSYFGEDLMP
Conditions: 0.1 uM.
Description: Inhibition of human truncated PKC epsilon expressed in baculovirus assessed as substrate phosphorylation using fluorescence-labelled peptides as substrate at 0.1 uM after 90 mins by microfluidic peptide phosphorylation assay

The target in assay [6] is Mitogen-activated protein kinase 1 (Homo sapiens) (UniProt P28482). Conditions: 0.1 uM.
Description: Inhibition of human full length ERK2 expressed in Escherichia coli cell assessed as substrate phosphorylation using fluorescence-labelled peptides as substrate at 0.1 uM after 90 mins by microfluidic peptide phosphorylation assay
Assay [7] addresses Fibroblast growth factor receptor 4 (Homo sapiens) (UniProt P22455). Conditions: 0.1 uM.
Description: Inhibition of human FGFR4 catalytic domain expressed in baculovirus assessed as substrate phosphorylation using fluorescence-labelled peptides as substrate at 0.1 uM after 90 mins by microfluidic peptide phosphorylation assay
Assay [8] concerns the target T3, cGMP-dependent protein kinase 1 (Homo sapiens) (UniProt Q13976).
T3 sequence (whole entry): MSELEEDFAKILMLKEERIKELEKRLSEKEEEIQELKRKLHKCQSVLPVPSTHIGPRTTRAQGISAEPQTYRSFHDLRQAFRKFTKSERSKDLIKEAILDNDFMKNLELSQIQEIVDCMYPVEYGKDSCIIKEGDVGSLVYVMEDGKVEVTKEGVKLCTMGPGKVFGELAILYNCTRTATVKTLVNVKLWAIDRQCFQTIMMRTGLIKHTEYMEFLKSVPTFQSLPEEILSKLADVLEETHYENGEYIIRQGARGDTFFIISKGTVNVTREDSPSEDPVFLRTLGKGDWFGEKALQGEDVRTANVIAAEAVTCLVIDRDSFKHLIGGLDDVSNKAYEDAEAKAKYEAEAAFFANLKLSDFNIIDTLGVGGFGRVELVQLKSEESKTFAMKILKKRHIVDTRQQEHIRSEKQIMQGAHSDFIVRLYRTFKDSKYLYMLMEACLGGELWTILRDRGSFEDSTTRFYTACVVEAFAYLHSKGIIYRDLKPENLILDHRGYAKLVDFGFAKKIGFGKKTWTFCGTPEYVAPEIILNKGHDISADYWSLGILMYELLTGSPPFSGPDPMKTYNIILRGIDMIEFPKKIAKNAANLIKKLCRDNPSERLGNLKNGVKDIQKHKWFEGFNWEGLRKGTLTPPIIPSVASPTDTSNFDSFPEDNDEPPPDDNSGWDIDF
Description: Inhibition of human full length PKG-1a expressed in baculovirus assessed as substrate phosphorylation using fluorescence-labelled peptides as substrate at 95 uM after 90 mins by microfluidic peptide phosphorylation assay.

For the next assay, the species on record is Homo sapiens. Briefly: Inhibition of human P70S6K catalytic domain expressed in baculovirus assessed as substrate phosphorylation using fluorescence-labelled peptides as substrate at 9 uM after 90 mins by microfluidic peptide phosphorylation assay.
Assay [9] concerns the target Cyclin-dependent kinase 2 (Homo sapiens) (UniProt P24941). Briefly: Inhibition of human full length CDK2 expressed in baculovirus assessed as substrate phosphorylation using fluorescence-labelled peptides as substrate at 9 uM after 90 mins by microfluidic peptide phosphorylation assay.
In assay [10] the target is Mitogen-activated protein kinase 3 (Homo sapiens) (UniProt P27361). Briefly: Inhibition of human full length ERK1 expressed in Escherichia coli cell assessed as substrate phosphorylation using fluorescence-labelled peptides as substrate at 1000 uM after 90 mins by microfluidic peptide phosphorylation assay.
For assay [11], the target named is Serine/threonine-protein kinase pim-1 (Homo sapiens) (UniProt P11309). Briefly: Inhibition of human full length PIM1 expressed in baculovirus assessed as substrate phosphorylation using fluorescence-labelled peptides as substrate at 2 uM after 90 mins by microfluidic peptide phosphorylation assay.
The target in assay [12] is Calcium/calmodulin-dependent protein kinase type II subunit beta (Homo sapiens) (UniProt Q13554). Briefly: Inhibition of human CAMK2 beta catalytic domain expressed in baculovirus assessed as substrate phosphorylation using fluorescence-labelled peptides as substrate at 70 uM after 90 mins by microfluidic peptide phosphorylation assay.
Calcium/calmodulin-dependent protein kinase type II subunit beta (Homo sapiens), sequence (Q13554 whole entry, the tested form may be a part): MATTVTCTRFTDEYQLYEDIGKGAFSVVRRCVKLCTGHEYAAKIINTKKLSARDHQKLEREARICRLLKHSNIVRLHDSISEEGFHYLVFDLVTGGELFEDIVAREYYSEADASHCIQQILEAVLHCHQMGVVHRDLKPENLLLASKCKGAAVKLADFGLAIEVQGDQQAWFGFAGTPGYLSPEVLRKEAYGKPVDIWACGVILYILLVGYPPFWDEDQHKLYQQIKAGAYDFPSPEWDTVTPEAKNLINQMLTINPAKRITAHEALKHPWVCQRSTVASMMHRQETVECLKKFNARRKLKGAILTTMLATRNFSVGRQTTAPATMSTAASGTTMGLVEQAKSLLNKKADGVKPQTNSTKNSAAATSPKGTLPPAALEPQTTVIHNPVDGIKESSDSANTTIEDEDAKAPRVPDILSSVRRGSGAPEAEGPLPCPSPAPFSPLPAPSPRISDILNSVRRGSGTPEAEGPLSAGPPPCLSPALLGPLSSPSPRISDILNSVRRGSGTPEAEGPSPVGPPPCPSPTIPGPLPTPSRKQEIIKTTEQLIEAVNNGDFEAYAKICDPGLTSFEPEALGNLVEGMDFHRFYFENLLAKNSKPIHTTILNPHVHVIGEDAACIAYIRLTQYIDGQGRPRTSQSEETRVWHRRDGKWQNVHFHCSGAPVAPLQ

Mitogen-activated protein kinase 1 (Homo sapiens), sequence (P28482 whole entry, the tested form may be a part): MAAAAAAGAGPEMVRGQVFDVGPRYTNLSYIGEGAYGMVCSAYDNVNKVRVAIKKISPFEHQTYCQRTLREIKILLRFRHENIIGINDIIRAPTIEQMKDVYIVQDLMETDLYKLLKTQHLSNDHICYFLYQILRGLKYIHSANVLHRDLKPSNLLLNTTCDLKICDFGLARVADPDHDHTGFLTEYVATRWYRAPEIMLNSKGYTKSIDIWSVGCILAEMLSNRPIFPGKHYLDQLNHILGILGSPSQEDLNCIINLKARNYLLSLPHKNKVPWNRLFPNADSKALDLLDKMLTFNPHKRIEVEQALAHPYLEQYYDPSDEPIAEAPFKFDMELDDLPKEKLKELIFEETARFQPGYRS
Mitogen-activated protein kinase 3 (Homo sapiens), sequence (P27361 whole entry): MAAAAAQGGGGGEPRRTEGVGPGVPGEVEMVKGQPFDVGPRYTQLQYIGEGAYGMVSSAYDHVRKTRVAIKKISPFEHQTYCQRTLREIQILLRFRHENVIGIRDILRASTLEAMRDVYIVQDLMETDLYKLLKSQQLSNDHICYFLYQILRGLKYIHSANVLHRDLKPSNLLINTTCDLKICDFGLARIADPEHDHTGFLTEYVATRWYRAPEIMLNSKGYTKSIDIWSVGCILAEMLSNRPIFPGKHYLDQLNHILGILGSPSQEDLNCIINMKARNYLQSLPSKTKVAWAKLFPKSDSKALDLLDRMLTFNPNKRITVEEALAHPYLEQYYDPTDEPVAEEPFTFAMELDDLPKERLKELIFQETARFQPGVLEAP
Serine/threonine-protein kinase pim-1 (Homo sapiens), sequence (P11309 whole entry, looked up, the tested form may be a part): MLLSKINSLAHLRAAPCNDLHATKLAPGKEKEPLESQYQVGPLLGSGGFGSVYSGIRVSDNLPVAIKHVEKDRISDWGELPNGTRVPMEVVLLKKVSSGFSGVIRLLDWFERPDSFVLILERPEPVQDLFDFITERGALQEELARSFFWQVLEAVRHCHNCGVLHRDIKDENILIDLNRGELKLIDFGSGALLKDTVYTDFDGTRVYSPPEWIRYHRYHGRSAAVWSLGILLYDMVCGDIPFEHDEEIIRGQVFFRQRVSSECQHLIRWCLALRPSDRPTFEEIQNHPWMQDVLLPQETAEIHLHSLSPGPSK
Fibroblast growth factor receptor 4 (Homo sapiens), sequence (P22455 22-802 limits assumed): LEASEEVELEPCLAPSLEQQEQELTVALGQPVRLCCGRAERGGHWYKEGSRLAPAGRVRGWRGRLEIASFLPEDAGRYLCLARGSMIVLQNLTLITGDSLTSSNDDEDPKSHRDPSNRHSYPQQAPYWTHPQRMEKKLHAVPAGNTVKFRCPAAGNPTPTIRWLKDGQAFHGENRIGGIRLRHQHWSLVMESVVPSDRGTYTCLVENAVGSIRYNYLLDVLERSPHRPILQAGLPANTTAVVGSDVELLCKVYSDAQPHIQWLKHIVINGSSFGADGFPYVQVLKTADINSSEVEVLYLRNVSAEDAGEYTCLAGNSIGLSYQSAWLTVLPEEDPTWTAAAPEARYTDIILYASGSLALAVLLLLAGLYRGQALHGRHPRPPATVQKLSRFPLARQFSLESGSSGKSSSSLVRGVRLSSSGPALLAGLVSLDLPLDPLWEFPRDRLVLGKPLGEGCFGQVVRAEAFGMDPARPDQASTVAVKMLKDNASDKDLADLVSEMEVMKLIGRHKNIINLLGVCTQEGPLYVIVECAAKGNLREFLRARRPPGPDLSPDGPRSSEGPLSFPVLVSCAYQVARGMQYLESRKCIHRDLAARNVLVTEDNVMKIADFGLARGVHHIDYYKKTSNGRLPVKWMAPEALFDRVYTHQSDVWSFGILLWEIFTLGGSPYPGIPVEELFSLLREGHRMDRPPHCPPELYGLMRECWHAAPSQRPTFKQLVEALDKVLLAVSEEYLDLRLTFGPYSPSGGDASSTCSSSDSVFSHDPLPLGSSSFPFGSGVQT
Rho-associated protein kinase 2 (Homo sapiens), sequence (O75116 whole entry, looked up, the tested form may be a part): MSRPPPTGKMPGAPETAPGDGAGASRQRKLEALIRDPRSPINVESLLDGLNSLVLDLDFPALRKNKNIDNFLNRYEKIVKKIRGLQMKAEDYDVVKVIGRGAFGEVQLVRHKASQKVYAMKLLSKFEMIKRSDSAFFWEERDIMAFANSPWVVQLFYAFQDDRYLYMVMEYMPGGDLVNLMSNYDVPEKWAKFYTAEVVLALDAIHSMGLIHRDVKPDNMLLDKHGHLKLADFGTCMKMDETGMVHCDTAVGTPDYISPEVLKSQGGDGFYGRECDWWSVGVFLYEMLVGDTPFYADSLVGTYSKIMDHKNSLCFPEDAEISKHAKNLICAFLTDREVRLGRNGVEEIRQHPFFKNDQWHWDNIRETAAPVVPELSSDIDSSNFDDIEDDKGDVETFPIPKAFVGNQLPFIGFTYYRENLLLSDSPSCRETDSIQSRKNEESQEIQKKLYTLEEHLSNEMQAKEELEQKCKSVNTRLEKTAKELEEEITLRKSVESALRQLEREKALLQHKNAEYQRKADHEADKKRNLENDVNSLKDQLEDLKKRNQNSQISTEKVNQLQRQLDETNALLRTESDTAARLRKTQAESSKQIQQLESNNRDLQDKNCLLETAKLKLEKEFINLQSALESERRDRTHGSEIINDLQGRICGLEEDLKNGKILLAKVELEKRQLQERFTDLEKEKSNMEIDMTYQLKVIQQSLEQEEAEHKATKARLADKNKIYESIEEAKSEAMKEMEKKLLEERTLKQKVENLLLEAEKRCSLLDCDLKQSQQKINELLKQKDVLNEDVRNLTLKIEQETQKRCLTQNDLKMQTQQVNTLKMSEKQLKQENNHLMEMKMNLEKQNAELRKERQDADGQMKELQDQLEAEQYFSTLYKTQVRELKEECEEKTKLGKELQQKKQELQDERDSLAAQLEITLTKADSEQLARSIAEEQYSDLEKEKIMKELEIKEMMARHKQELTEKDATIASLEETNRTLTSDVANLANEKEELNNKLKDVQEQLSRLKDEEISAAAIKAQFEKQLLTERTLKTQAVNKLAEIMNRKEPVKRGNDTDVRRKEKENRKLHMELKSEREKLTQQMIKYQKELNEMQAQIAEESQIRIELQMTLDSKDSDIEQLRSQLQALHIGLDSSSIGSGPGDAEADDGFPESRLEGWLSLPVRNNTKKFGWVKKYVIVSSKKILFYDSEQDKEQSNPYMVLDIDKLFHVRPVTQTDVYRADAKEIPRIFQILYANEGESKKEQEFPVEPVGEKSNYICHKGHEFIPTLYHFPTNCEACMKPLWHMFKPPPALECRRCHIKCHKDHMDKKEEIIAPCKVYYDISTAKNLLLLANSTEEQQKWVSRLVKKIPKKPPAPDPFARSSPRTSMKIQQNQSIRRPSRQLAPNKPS

With `Clc1ccc(C2(c3ccc(-c4ncnc5[nH]cnc45)cc3)CCNCC2)cc1`, the inhibition in assay [1] is 67%; in assay [2], 7%; in assay [3], 4.5%; in assay [4], 97%.

On to `C[C@H](CN(C)C)Oc1nc(Nc2cc3cccc(Cl)c3cn2)cnc1C#N`, for which the inhibition in assay [5], in assay [6] and in assay [7] was 0% in each case.

On to `NCCc1ccc(-c2ncnc3[nH]cnc23)cc1`, for which the inhibition in assay [8] was 92%.

Consider `NCC1CN(c2ncnc3[nH]c4cnccc4c23)CCO1` (stereo not drawn), for which the inhibition in the assay filed under Homo sapiens is 14.5%; in assay [9], 26.5%.

Turning to `c1cnc2[nH]ccc2c1`, the inhibition in assay [10] is 36%.

With `NC1CCN(c2ncnc3[nH]ccc23)CC1`, the inhibition in assay [11] came out at 2%.

For `CNCc1ccc(-c2ncnc3[nH]cnc23)cc1`, the inhibition in assay [12] was determined as 6.5%.
